The results in this text go back to patent US6838237B2, “Antigenically reactive regions of the hepatitis a virus polyprotein” (The United States of America as represented by the …, priority 1996, dated 2005).

The test system of one assay is anti-HAV-positive sera. The assay can be described thus: EIA for anti-HAV: synthetic peptides adsorbed to wells, reacted with anti-HAV-positive acute sera. It is filed as binding, human. As to conditions: for Reactivity with acute sera (reactive/tested): experiment 1: sera 1:100, anti-human IgG-HRP, cutoff P/N 3.0; for Reactivity with acute sera (percent of sera reactive): experiment 1: sera 1:100, cutoff P/N 3.0; for P/N for acute sera (mean) / P/N for acute sera (range, in parentheses): experiment 1, OD493 positive/negative ratio of reactive sera. The text has this: (§1) All anti-HAV-positive and anti-HAV-negative sera were randomly selected from a collection reposited at the Centers for Disease Control and Prevention, Atlanta, Ga. Serum specimens were collected from anti-HAV-positive patients with acute liver disease. Anti-HAV-negative serum specimens were collected from normal blood donors. All sera were initially tested by commercially available kit for the presence of anti-HAV activity (HAVAB and HAVAB-M, Abbott Laboratories, Abbott Park, Ill.)
(§2) Synthetic peptides (110 ml) at a concentration of 10 mg/ml in 0.1 M phosphate-buffered saline (PBS), pH 7.5, were adsorbed to microtiter wells (Immulon II, Dynatech Laboratories, Inc.) at room temperature for 12 h. Sera were diluted in PBS containing 0.1% Tween 20 and 10% normal goat serum (PBS-T) and 100 ml were added to each well, incubated for 60 min at 37E C, and washed with PBS containing Tween-20. […] Two different cutoffs were established for experiments 1 and 2. In experiment 1, the cutoff, expressed as a P/N ratio and equal to 3.0, was statistically established as the mean of negative controls plus at least 3.5 standard deviations (SD) above the mean, where P represents the optical density value at 493 nm (OD493) of anti-HAV-positive specimens and N represents the optical density value of negative controls. In experiment 2, a different cutoff was used to ensure statistical reliability and accurate interpretation of positive results. In this case, in addition to anti-HAV-negative sera, two irrelevant synthetic peptides were used as supplemental negative controls to determine the degree of nonspecific binding of anti-HAV sera to synthetic peptides. One cutoff, expressed as a P/N ratio and equal to 3.0, corresponded to the mean of negative serum controls plus at least 3.5 SD above the mean. A second cutoff was also expressed as a P/N ratio, where P represents the optical density value at 493 nm (OD493) for HAV peptides immunoreacting with anti-HAV-positive specimens and N represents the optical density value obtained with the irrelevant peptides. The second cutoff was equal 2.0 and corresponded to the mean of OD values obtained with the irrelevant peptides plus at least 3.5 SD above the mean. Synthetic peptides were considered immunoreactive with anti-HAV serum specimens only when both cutoffs were satisfied.

Another assay deals with anti-HAV-negative sera. Briefly: EIA for anti-HAV: synthetic peptides reacted with anti-HAV-negative sera. It is filed as binding, human. As to conditions: experiment 1: sera 1:100, cutoff P/N 3.0.
Excerpt: as §1, §2

Take EDPVLAKKVPETFPELKPGE [YK-1272]: in the assay on anti-HAV-positive sera, the “Reactivity with acute sera (reactive/tested)” value is listed as 6/41; the “Reactivity with acute sera (percent of sera reactive)” value is 14.6%; the “P/N for acute sera (mean)” value was determined as 5.4; the “P/N for acute sera (range, in parentheses)” value is on record as “(4.87-6.12)”. Moreover, the “Reactivity with negative sera (reactive/tested)” value with anti-HAV-negative sera is listed as 1/46.
For the sequence DKPGSKKTQGEKFFLIHSAD [YK-1212], in the assay with anti-HAV-positive sera, the “Reactivity with acute sera (reactive/tested)” value is 3/41; the “Reactivity with acute sera (percent of sera reactive)” value was 7.3%; the “P/N for acute sera (mean)” value turned out to be 3.5; the “P/N for acute sera (range, in parentheses)” value was “(3.04-3.96)”. In addition, in the assay on anti-HAV-negative sera, the “Reactivity with negative sera (reactive/tested)” value is given as 0/46.
FPTKYHSGRLLFCFVPGNEL [YK-1250]: in the assay on anti-HAV-positive sera, the “immunoreactivity with anti-HAV-positive sera (in words)” value (from here on “immunoreactivity”) is “broadly and strongly immunoreactive”; the “Reactivity with acute sera (reactive/tested)” value was 17/46; the “Reactivity with acute sera (percent of sera reactive)” value turned out to be 37.0%; the “P/N for acute sera (mean)” value is recorded as 5.68. Moreover, the “P/N for acute sera (range, in parentheses)” value with anti-HAV-positive sera is reported as “(3.4-7.92)”. Further, the “Reactivity with negative sera (reactive/tested)” value in the assay with anti-HAV-negative sera is recorded as 0/48.
As to DVVLMKVPTIPKFRDITQHF [YK-1382], in the assay with anti-HAV-positive sera, the “Reactivity with acute sera (reactive/tested)” value is reported as 1/41, the “Reactivity with acute sera (percent of sera reactive)” value is 2.4% and the “P/N for acute sera (mean)” value is given as 8.4. In addition, in the assay on anti-HAV-negative sera, the “Reactivity with negative sera (reactive/tested)” value was 0/27.
As for AKKVPETFPELKPGESRHTS [YK-1273], in the assay with anti-HAV-positive sera, the “immunoreactivity” value is “broad and strong antigenic reactivity”; the “Reactivity with acute sera (reactive/tested)” value is listed as 19/46; the “Reactivity with acute sera (percent of sera reactive)” value is on record as 41.3%; the “P/N for acute sera (mean)” value worked out at 5.15. For the same sequence, the “P/N for acute sera (range, in parentheses)” value in the assay with anti-HAV-positive sera is reported as “(3.15-8.58)”. In addition, the “Reactivity with negative sera (reactive/tested)” value in the assay with anti-HAV-negative sera was 3/48.
As for VSGCPMRLNMASLEEKGRHF [YK-1356], in the assay on anti-HAV-positive sera, the “Reactivity with acute sera (reactive/tested)” value is 8/48; the “Reactivity with acute sera (percent of sera reactive)” value worked out at 16.7%; the “P/N for acute sera (mean)” value is given as 5.49; the “P/N for acute sera (range, in parentheses)” value was “(3.36-10.96)”. Besides, the “Reactivity with negative sera (reactive/tested)” value in the assay on anti-HAV-negative sera is reported as 0/51.
For MLSKYSLPIVEEPEDYKEAS [YK-1399] the same measures were 5/41, 12.2%, 6.86, “(4.05-16.46)” and 1/27.
Consider FDFQVFPTKYHSGRLLFCFV [YK-1249], for which, in the assay on anti-HAV-positive sera, the “immunoreactivity” value was “broadly and strongly immunoreactive”; the “Reactivity with acute sera (reactive/tested)” value was 18/46; the “Reactivity with acute sera (percent of sera reactive)” value is reported as 39.1%; the “P/N for acute sera (mean)” value is reported as 5.03. Besides, the “P/N for acute sera (range, in parentheses)” value in the assay on anti-HAV-positive sera was “(3.07-7.03)”. Moreover, the “Reactivity with negative sera (reactive/tested)” value with anti-HAV-negative sera is reported as 0/48.
SLIAWQRSNAEFEQNLENAQ [YK-1435]: in the assay on anti-HAV-positive sera, the “Reactivity with acute sera (reactive/tested)” value was 6/41; the “Reactivity with acute sera (percent of sera reactive)” value was determined as 14.6%; the “P/N for acute sera (mean)” value stood at 8.96; the “P/N for acute sera (range, in parentheses)” value was “(5.16-13.71)”. Moreover, the “Reactivity with negative sera (reactive/tested)” value in the assay on anti-HAV-negative sera is recorded as 1/27.
The like results for KCITALASICQMFCFWRGDL [YK-1247] were, in that order, 9/46, 19.6%, 3.96, “(3.06-4.49)” and 0/48.
For NRGKMDVSGVQAPVGAITTI [YK-1268] the same measures were 7/46, 15.2%, 9.1, “(6.07-15.25)” and 2/48.
For VAKLVTQEMFQNIDKKIESQ [YK-1393], in the assay on anti-HAV-positive sera, the “immunoreactivity” value was “very broad and strong antigenic reactivity”; the “mean P/N ratio with anti-HAV-positive sera” value is on record as 10.15; the “percent of (IgM) anti-HAV-positive sera immunoreactive with peptide” value came to 58.5%; the “Reactivity with acute sera (reactive/tested)” value is reported as 24/41. Besides, in the assay with anti-HAV-positive sera, the “Reactivity with acute sera (percent of sera reactive)” value is reported as 58.5%; the “P/N for acute sera (mean)” value was 10.15; the “P/N for acute sera (range, in parentheses)” value is recorded as “(4.64-16.36)”. Also, the “Reactivity with negative sera (reactive/tested)” value in the assay with anti-HAV-negative sera is reported as 1/27.
For the sequence HGVTKPKQVIKLDADPVESQ [YK-1374], in the assay with anti-HAV-positive sera, the “immunoreactivity” value is “very broad and strong antigenic reactivity”; the “Reactivity with acute sera (reactive/tested)” value was 18/41; the “Reactivity with acute sera (percent of sera reactive)” value came to 43.9%; the “P/N for acute sera (mean)” value was found to be 10.57. In the assay with anti-HAV-positive sera, the “P/N for acute sera (range, in parentheses)” value is on record as “(3.28-29.07)”. Besides, the “Reactivity with negative sera (reactive/tested)” value in the assay on anti-HAV-negative sera is given as 0/27.
On to MSRIAAGDLESSVDDPRSEE [YK-1312], for which, in the assay with anti-HAV-positive sera, the “Reactivity with acute sera (reactive/tested)” value was 13/48; the “Reactivity with acute sera (percent of sera reactive)” value is on record as 27.1%; the “P/N for acute sera (mean)” value stood at 8.7; the “P/N for acute sera (range, in parentheses)” value was “(4.44-25.9)”. The “Reactivity with negative sera (reactive/tested)” value in the assay with anti-HAV-negative sera is 2/51.
For IKVIPVDPYFFQMTNTNPDQ [YK-1244] the same measures were 6/41, 14.6%, 4.2, “(3.55-5.2)” and 0/46.
Turning to SEKTIWSLIAWQRSNAEFEQ [YK-1434], in the assay with anti-HAV-positive sera, the “Reactivity with acute sera (reactive/tested)” value is 11/41; the “Reactivity with acute sera (percent of sera reactive)” value came to 26.8%; the “P/N for acute sera (mean)” value was 7.47; the “P/N for acute sera (range, in parentheses)” value is “(3.85-16.03)”. In addition, the “Reactivity with negative sera (reactive/tested)” value in the assay on anti-HAV-negative sera is recorded as 1/27.
For GLVRKNLVQFGVGEKNGCVR [YK-1376] the same measures were 3/41, 7.3%, 6.71, “(3.8-12.77)” and 0/27.
Consider SHIECRKPYKELRLEVGKQR [YK-1315], for which, in the assay with anti-HAV-positive sera, the “Reactivity with acute sera (reactive/tested)” value was 26/48; the “Reactivity with acute sera (percent of sera reactive)” value came out at 54.2%; the “P/N for acute sera (mean)” value is given as 13.71; the “P/N for acute sera (range, in parentheses)” value is given as “(3.1-75.61)”. The “Reactivity with negative sera (reactive/tested)” value with anti-HAV-negative sera is reported as 1/51.
For DLEEIAANSKDFPNMSETDL [YK-1328], in the assay with anti-HAV-positive sera, the “Reactivity with acute sera (reactive/tested)” value is 6/48; the “Reactivity with acute sera (percent of sera reactive)” value is 12.5%; the “P/N for acute sera (mean)” value was 4.76; the “P/N for acute sera (range, in parentheses)” value is given as “(3.74-6.39)”. Besides, the “Reactivity with negative sera (reactive/tested)” value in the assay on anti-HAV-negative sera is given as 1/51.
For LNMASLEEKGRHFSSPFIIA [YK-1357], in the assay on anti-HAV-positive sera, the “Reactivity with acute sera (reactive/tested)” value is 4/48; the “Reactivity with acute sera (percent of sera reactive)” value is reported as 8.3%; the “P/N for acute sera (mean)” value was 4.49; the “P/N for acute sera (range, in parentheses)” value is reported as “(4.06-4.85)”. Also, in the assay with anti-HAV-negative sera, the “Reactivity with negative sera (reactive/tested)” value is 1/51.
For PYKELRLEVGKQRLKYAQEE [YK-1316] the same measures were 20/48, 41.7%, 8.71, “(3.5-17.8)” and 2/51.
The like results for VKEAIDRRLHFKVEVKPASF [YK-1361] were, in that order, 5/41, 12.2%, 4.12, “(3.21-6.28)” and 0/46.
As to VMTVEIRKQNMTEFMELWSQ [YK-1367], in the assay on anti-HAV-positive sera, the “percent of (IgM) anti-HAV-positive sera immunoreactive with peptide” value is reported as 22.0%, the “Reactivity with acute sera (reactive/tested)” value is on record as 9/41, the “Reactivity with acute sera (percent of sera reactive)” value stood at 22.0% and the “P/N for acute sera (mean)” value turned out to be 7.82. Further, the “P/N for acute sera (range, in parentheses)” value with anti-HAV-positive sera was “(4.18-16.26)”. For the same sequence, in the assay on anti-HAV-negative sera, the “Reactivity with negative sera (reactive/tested)” value is listed as 1/41.
In the case of TPVGLAVDTPWVEKESALSI [YK-1290], in the assay with anti-HAV-positive sera, the “Reactivity with acute sera (reactive/tested)” value is reported as 6/48; the “Reactivity with acute sera (percent of sera reactive)” value stood at 12.5%; the “P/N for acute sera (mean)” value is reported as 4.48; the “P/N for acute sera (range, in parentheses)” value is on record as “(3.0-6.44)”. Also, the “Reactivity with negative sera (reactive/tested)” value in the assay on anti-HAV-negative sera is recorded as 1/51.
